Changes are numbered by the printed parent chain. Names and notes keep the numbering of the source. Like-named read-outs stand apart in the source and are kept apart here.
Assays:
[1] = tested on: BDNF-induced nuclear Arc expression in primary cortical neurons; assay: Chemogenomic screen: high-content image-based assay of BDNF-induced nuclear Arc expression (96-well); assay type: cell-based, mouse
Procedure, shortened: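 Nuclear Arc immunofluorescence is quantified automatically within an acetyl-H3K9-defined nuclear mask from ×40 images. Cultures are DIV13 mouse forebrain cortical neurons seeded at 30,000 per well and exposed to BDNF plus compound at a final 16.7 µM, with triplicate biological replicates.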

surface GluA1 = assay: Surface AMPAR (GluA1) imaging along dendrites; assay type: cell-based, mouse; conditions: 16.7 µM, 6 h with BDNF, vs untreated and BDNF alone; for BDNF: BDNF alone vs baseline
Procedure: Our procedure to label surface AMPARs containing the GluA1 subunit was adapted from two reports[14],[61]. Precisely, DIV14 primary cortical neurons cultured on coverslips were rinsed once with room temperature PBS^MC (PBS containing 0.5 mM CaCl2, 1 mM MgCl2, and 4% sucrose). Live cells were then incubated for 30 min at room temperature with GluA1 primary antibody solution (PBS^MC with antibody against the extracellular N-terminus of GluA1 (EMD Millipore Corp, clone RH95, 5.0 µg ml^−1)). Next, cells were rinsed twice with ice-cold PBS^MC followed by fixation with 4% paraformaldehyde + 4% sucrose solution for 15 min at room temperature. After fixation, neurons were washed with regular PBS and then incubated overnight with Map2 primary antibody solution (PBS with 0.125% Triton X-100, 5% normal goat serum, and anti-Map2 antibody) to label dendrites. Next day, coverslips were washed with PBS, incubated with appropriate secondary antibodies for 1 h at room temperature, and finally mounted on glass slides with ProLong Antifade reagent (Invitrogen).
(§1) Quantification of surface GluA1 puncta was performed according to the following strategy. First, overlapping digital images of GluA1 and Map2 immunostainings were collected using a Zeiss AxioObserver Z1 inverted microscope and ×63 oil immersion objective. Second, thresholding and segmentation based on the Map2 images was used to remove GluA1 signals outside of dendritic processes. Importantly, the same background/foreground cutoff threshold was used for images of all experimental conditions. Third, the length of dendrites for each image set was measured and recorded. Finally, distinct GluA1 foreground objects along dendrites >5 pixels were counted using the particle analysis tool in ImageJ and presented as the average number of GluA1 puncta per µm of dendrite length for each experimental condition.

Arc protein [2] = assay: Western blot of total Arc protein in primary cortical neurons; assay type: cell-based, mouse; conditions: BDNF 6 h supplemented with compound
[3] = tested on: Arc puncta in dendrites of primary cortical neurons; assay: Arc puncta along Map2-labeled dendrites (immunocytochemistry); assay type: cell-based, mouse; conditions: 16.7 µM with BDNF, vs untreated and BDNF alone; for BDNF: BDNF alone vs untreated
From the text: Chemical structure of each compound is presented on top. b Graphs show mean (n = 5) Arc/β-actin ratio (±SEM) for cells treated as in a. […] Tukey’s HSD post hoc test, *p < 0.05; **p < 0.01, ***p < 0.005; ****p < 0.0001. […] Representative captures of DIV14 mouse primary cortical neurons from each experimental condition co-immunostained for Arc (red fluorophore) and Map2 (green fluorophore). White arrowheads show examples of discrete Arc puncta. […] Tukey’s HSD post hoc test, *p < 0.05; ***p < 0.005; ****p < 0.0001
Indirect immunofluorescence detection of antigens was carried out using cortical neurons cultured on poly-L-lysine/laminin-coated coverslips in 24-well plates at a density of 0.1 × 10^7 per well. After experimental treatment, cells were washed twice with PBS and fixed for 30 min at room temperature with 4% paraformaldehyde in PBS. After fixation, cells were washed twice with PBS, permeabilized with PBST (PBS + 0.25% Triton X-100) for 20 min, blocked in blocking solution (PBS + 5% normal goat serum) for another 30 min, and finally incubated overnight at 4 °C with the first primary antibody in blocking solution. The next day, coverslips were extensively washed with PBS and incubated for 2 h at room temperature in the appropriate fluorophore-conjugated secondary antibody solution (Alexa 488- or Alexa 594-conjugated secondary antibody (Molecular Probes, Invitrogen) in blocking solution). After washing with PBS, the coverslips were incubated again overnight in primary antibody solution for the second antigen, and the procedure for conjugation of the fluorophore-conjugated secondary antibody was repeated as above. Finally, cell nuclei were counterstained with 4′,6-diamidino-2-phenylindole (DAPI), and coverslips were mounted on glass slides with ProLong Antifade reagent (Invitrogen).
as §1

acetyl-H3K9 = assay: Acetyl-H3K9 immunofluorescence in neuronal nuclei (multiplexed in screen); assay type: cell-based, mouse; conditions: screen, 16.7 µM
Procedure: To increase the throughput of our pharmacological screening for modulators of Arc, the above mentioned assay was adapted to cultures of mouse primary cortical neurons in 96-well plates.
Screening of compounds in the chemogenomic library was carried out using DIV13 primary forebrain cortical neurons cultured on poly-L-lysine/laminin-coated 96-well plates (Ibidi USA, Madison, WI). Cells were seeded at a density of 30,000 cells per well and treated with the compound library and BDNF according to the experimental design presented in Fig. 3a. After experimental treatment, cells were processed for Arc and acetyl-H3K9 immunocytochemistry according to the protocol described above. Both antigens (Arc and acetyl-H3K9) were imaged using an IN Cell Analyzer 6000 imaging system and a ×40 objective. […] High-throughput quantification of nuclear Arc immunofluorescence signal was performed in a similar fashion than the low-throughput procedure described above but with the exception that acetyl-H3K9 was used as a nuclear mask to guide the automated quantification of nuclear Arc immunofluorescence signal.

Arc protein [4] = assay: Arc protein half-life after cycloheximide block in primary cortical neurons; assay type: cell-based, mouse; conditions: BDNF 4 h, then CHX plus oxamflatin; vehicle baseline ~47 min
Procedure: Each compound was tested at a concentration of 16.7 µM and in combination with BDNF or alone. Arc mRNA level induced by just BDNF was included in each experiment as a reference. Bars represent mean fold-change (f.c.) normalized to Arc expression measured in untreated cultures and each red point represents fold-change for an individual biological replicate (n = 4). d Primary cortical neurons were treated with BDNF for 4 h to induce Arc expression at which point protein synthesis was blocked by direct addition to culture media of cycloheximide (CHX, 50 µg ml^−1) in presence of vehicle or oxamflatin (16.7 µM). […] It is left out because the vehicle is a control and not a substance.
Specifically, we stimulated the cells with BDNF for 4 h to promote accumulation of Arc protein and then added CHX to block all de novo protein translation. Importantly, cultures treated this way were divided in two groups—one to which oxamflatin was added at the same time as CHX and another that was treated with the vehicle only (baseline measure). […] This experiment provided clear evidence that the impact of oxamflatin on Arc protein abundance is, at least in part, the result of a decrease in the rate of Arc protein degradation; however, a mechanistic explanation of how this KDAC inhibitor is modulating the turnover of Arc protein remained elusive at this point.

HDAC1 = target: T1, HDAC1 (Homo sapiens, UniProt Q13547); assay: Biochemical HDAC assay (BPS Bioscience), HDAC1; conditions: 25 µM
T1 construct: purchased BPS Bioscience (San Diego, CA), contract assay service
T1 sequence (Q13547 whole entry): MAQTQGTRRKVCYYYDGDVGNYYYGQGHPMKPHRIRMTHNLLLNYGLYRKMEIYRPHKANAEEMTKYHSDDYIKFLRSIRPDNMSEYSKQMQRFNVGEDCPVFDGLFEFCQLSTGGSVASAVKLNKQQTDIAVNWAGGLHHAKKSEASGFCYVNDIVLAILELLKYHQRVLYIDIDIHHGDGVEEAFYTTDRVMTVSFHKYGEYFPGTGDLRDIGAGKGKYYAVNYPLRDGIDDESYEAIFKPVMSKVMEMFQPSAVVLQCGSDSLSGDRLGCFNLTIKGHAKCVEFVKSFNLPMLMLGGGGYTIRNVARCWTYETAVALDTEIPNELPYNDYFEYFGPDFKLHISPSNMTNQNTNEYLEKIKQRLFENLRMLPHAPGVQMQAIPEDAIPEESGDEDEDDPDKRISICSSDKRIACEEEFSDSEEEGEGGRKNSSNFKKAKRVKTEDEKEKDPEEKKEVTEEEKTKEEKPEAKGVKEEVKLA

HDAC2 = target: T2, HDAC2 (Homo sapiens, UniProt Q92769); assay: Biochemical HDAC assay (BPS Bioscience), HDAC2; conditions: 25 µM
T2 construct: purchased BPS Bioscience (San Diego, CA), contract assay service
T2 sequence (Q92769 whole entry): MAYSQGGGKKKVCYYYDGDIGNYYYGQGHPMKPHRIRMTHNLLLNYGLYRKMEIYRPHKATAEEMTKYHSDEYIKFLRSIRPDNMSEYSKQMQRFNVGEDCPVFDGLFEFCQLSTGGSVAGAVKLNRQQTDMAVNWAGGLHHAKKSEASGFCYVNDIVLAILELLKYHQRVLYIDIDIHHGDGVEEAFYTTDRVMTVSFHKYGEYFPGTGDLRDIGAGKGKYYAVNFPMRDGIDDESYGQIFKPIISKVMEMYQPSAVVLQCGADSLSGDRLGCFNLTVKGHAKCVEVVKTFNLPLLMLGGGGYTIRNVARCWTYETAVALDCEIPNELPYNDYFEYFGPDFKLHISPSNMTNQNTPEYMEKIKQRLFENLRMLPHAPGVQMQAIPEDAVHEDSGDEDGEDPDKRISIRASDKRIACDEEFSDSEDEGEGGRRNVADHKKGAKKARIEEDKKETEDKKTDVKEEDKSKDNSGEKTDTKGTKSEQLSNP

HDAC3 = target: T3, HDAC3 (Homo sapiens, UniProt O15379); assay: Biochemical HDAC assay (BPS Bioscience), HDAC3; conditions: 25 µM
T3 construct: purchased BPS Bioscience (San Diego, CA), contract assay service
T3 sequence (O15379 whole entry): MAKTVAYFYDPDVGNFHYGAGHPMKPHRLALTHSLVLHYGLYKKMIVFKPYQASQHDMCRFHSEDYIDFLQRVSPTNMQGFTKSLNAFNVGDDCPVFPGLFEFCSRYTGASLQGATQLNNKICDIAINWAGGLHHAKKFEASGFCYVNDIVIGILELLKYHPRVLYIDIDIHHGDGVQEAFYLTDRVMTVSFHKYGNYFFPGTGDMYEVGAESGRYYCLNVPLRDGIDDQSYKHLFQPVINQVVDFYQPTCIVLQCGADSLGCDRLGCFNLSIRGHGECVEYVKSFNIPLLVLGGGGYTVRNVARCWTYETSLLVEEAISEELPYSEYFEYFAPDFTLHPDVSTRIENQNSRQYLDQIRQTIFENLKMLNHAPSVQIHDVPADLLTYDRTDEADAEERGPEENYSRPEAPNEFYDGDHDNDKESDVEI
T3 sequence (Q9Y618 395-489 partner limits assumed): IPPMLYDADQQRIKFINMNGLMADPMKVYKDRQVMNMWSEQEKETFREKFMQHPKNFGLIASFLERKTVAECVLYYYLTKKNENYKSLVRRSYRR

Neuro2a cells [5] = assay: Polyubiquitination of WT and mutant Arc-Myc-FLAG (IP/western) in Neuro2a cells; assay type: cell-based, mouse; conditions: MG132 10 µM for 20 min
From the text: To assess polyubiquitination of Arc in DIV13 primary cortical neurons, Arc was immunopurified from total lysates using an agarose-conjugated anti-Arc monoclonal antibody (Santa Cruz Biotechnology, clone C-7). Overexpressed WT and mutant Arc-Myc-FLAG in Neuro2a cells were immunopurified from total lysates with anti-FLAG M2 antibody conjugated to magnetic beads (Sigma-Aldrich, M8823). Immunopurified materials were separated using SDS–PAGE and electrophoretically transferred to a nitrocellulose membrane. To enhance the immunodetection of ubiquitin conjugated to Arc, the nitrocellulose membrane was placed between two layers of Whatman filter paper, submerged in distilled water, and autoclaved for 30 min. After autoclaving, the membrane was blocked in blocking solution (TBST supplemented with 5% milk) for 30 min and incubated overnight with an antibody recognizing ubiquitin (Santa Cruz Biotechnology, clone P4D1, 1:200) in blocking solution. Subsequent steps were carried out according to the western blot procedure described above.

Neuro2a cells [6] = conditions: for Fold-change to WT: protein half-life in Neuro2a
From the text: Next, we aimed to determine whether the K24, K33, K55, and K70 residues participate in Arc protein turnover. […] We also included K70 in this experiment because of its position in the coiled-coil and nuclear retention domains of Arc (Fig. 5e) as well as its relative proximity to K55. For this test, we used site-directed mutagenesis to generate plasmids that would allow overexpression of an acetyl-mimic/unmodifiable mutant Arc-Myc-FLAG protein (lysine (K) to glutamine (Q) mutant) for each of these four sites. After transfecting sets of Neuro2a cells with these different constructs, we inhibited translation with CHX and monitored overexpressed protein levels for up to 6 h after.
Lysates were collected at the indicated time points and Arc-Myc-FLAG protein level analyzed in every sample by western blotting with an anti-FLAG antibody. Representative western blots are presented on top and quantification of data normalized to corresponding β-actin and presented as percentage of Arc-Myc-FLAG level (±SEM) at the initial time point after CHX application (t = 0). Curve represents exponential decay fit. b Estimate of protein half-life Arc for WT Arc-Myc-FLAG and each acetyl-mimic mutant is presented in table. c WT and acetyl-mutant Arc-Myc-FLAG polyubiquitination was determined in lysates from overexpressing Neuro2a cells. Lysates were immunoprecipitated with anti-FLAG and western blotted with anti-Ub or anti-Arc as indicated.
Neuro2A cells were cultured in DMEM (supplemented with 10% fetal bovine serum (Gemini-Bio-Products, West Sacramento, CA), penicillin (50 units ml^−1), and streptomycin (50 µg ml^−1)) and transfected overnight using Lipofectamine 2000 (Invitrogen) according to the manufacturer’s protocol. The Neuro2A cell line was generously shared by Dr. Grace Gill.
The pCMV6-Arc-Myc-DDK (FLAG) plasmid (MR206218) was purchased from OriGene Biotechnologies (Rockville, MD). The Arc-Myc-FLAG K24Q, K24R, K33Q, K55Q, K70Q, and K70R plasmids were generated with the help of the Q5 Site-Directed Mutagenesis Kit from New England BioLabs (Ipswich, MA) using WT pCMV6-Arc-Myc-FLAG as template. All constructs were verified by DNA sequencing.

## oxamflatin
[1]
  Percentage of cell with nuclear Arc immunostaining above 2σ threshold: 50.0%
[1]; 16.7 µM, three biological replicates
  rank among potentiators of BDNF-induced nuclear Arc expression in screen: second
[1]; nuclear Arc-positive cells relative to DMSO + BDNF control, negative values = decrease
  Fold-change — Normalized to DMSO control (BDNF): 2.6 fold
Surface GluA1
  surface GluA1 puncta per dendrite µm: significant decrease in surface GluA1 levels
Arc protein [2]
  total Arc protein vs BDNF plus vehicle control (western blot, Arc/β-actin): significantly more Arc protein
[3]
  number of Arc puncta in dendritic projections: significantly greater number of Arc puncta
acetyl-H3K9
  impact on acetyl-H3K9 immunofluorescence (Z-score): strong impact
Arc protein [4]
  Arc protein half-life (regression analysis): ~ 112 min

## CC(=O)Nc1ccc(C(=O)Nc2ccccc2N)cc1 [CI-994]
HDAC1
  inhibitory activity toward HDAC1: potent inhibition
[1]; 16.7 µM, BDNF
  occurrence of neuronal nuclei with above threshold nuclear Arc immunofluorescence signal, factor in relation to control (DMSO plus BDNF): ≥ 1.5
[1]; chemogenomic (SMART) screen, BDNF-induced nuclear Arc expression, primary cortical neurons, BDNF control 19.5
  Percentage of cell with nuclear Arc immunostaining above 2σ threshold: 29.1%
Surface GluA1
  surface GluA1 puncta per dendrite µm: significant decrease in surface GluA1 levels
HDAC2
  inhibitory activity toward HDAC2: potent inhibition
[3]
  number of Arc puncta in dendritic projections: significantly greater number of Arc puncta
acetyl-H3K9
  impact on acetyl-H3K9 immunofluorescence (Z-score): strong impact
HDAC3
  inhibitory activity toward HDAC3: potent inhibition

B1: K24Q: acetyl-mimic/unmodifiable mutant Arc-Myc-FLAG, lysine 24 to glutamine (protein, UniProt Q9WV31 1-396, looked up, variant K24Q)
Activity-regulated …: MELDHMTTGGLHAYPAPRGGPAAQPNVILQIGKCRAEMLEHVRRTHRHLLTEVSKQVERELKGLHRSVGKLENNLDGYVPTGDSQRWKKSIKACLCRCQETIANLERWVKREMHVWREVFYRLERWADRLESMGGKYPVGSEPARHTVSVGVGGPEPYCQEADGYDYTVSPYAITPPPAAGELPEQESVEAQQYQSWGPGEDGQPSPGVDTQIFEDPREFLSHLEEYLRQVGGSEEYWLSQIQNHMNGPAKKWWEFKQGSVKNWVEFKKEFLQYSEGTLSREAIQRELELPQKQGEPLDQFLWRKRDLYQTLYVDAEEEEIIQYVVGTLQPKLKRFLRHPLPKTLEQLIQRGMEVQDGLEQAAEPSGTPLPTEDETEALTPALTSESVASDRTQPE
modifications: Myc-FLAG tag
notes: acetyl-mimic/unmodifiable mutant Arc-Myc-FLAG, lysine 24 to glutamine
Neuro2a cells [5]
  polyubiquitination of Arc-Myc-FLAG mutant: noticeable decrease in polyubiquitination
Neuro2a cells [6]
  Estimated t½: 6.66 h
  Fold-change to WT: 2.40

B2: K70Q: acetyl-mimic/unmodifiable mutant Arc-Myc-FLAG, lysine 70 to glutamine (protein, UniProt Q9WV31 1-396, looked up, variant K70Q)
Activity-regulated …: B1 Activity-regulated … with Q24K, K70Q
modifications: Myc-FLAG tag
notes: acetyl-mimic/unmodifiable mutant Arc-Myc-FLAG, lysine 70 to glutamine
Neuro2a cells [5]
  polyubiquitination of Arc-Myc-FLAG mutant: noticeable decrease in polyubiquitination
Neuro2a cells [6]
  Estimated t½: 6.15 h
  Fold-change to WT: 2.22

Source: paper PMC5698418 (Nature Communications, 2017)
